Measured values: the NIST ThermoML archive (doi:10.1021/je0504109)
± gives the expanded uncertainty stated by the source. Values belong to the compound of their own block, whether it stands above or below them.

Experiment: xn = mol fraction of the nth substance listed
Conditions: 298.15 K, 101 kPa, Liquid

SMILES: C1COCO1 [1,3-dioxolane] + CCCC(=O)O
mass density (x1 = 1): 1057.1 ± 0.9 kg/m3
viscosity (x1 = 1): 0.531 ± 0.01 mPa·s

SMILES: C1COCCO1 [1,4-dioxane] + CCCCN
mass density (x1 = 1): 1026.5 ± 0.8 kg/m3
viscosity (x1 = 1): 1.196 ± 0.02 mPa·s

SMILES: C1COCCO1 [1,4-dioxane] + CCCCOC(C)=O
mass density (x1 = 1): 1026.5 ± 0.8 kg/m3
viscosity (x1 = 1): 1.196 ± 0.02 mPa·s

SMILES: CCCCOC(C)=O [butyl ethanoate] + C1COCO1
mass density (x2 = 0): 874.4 ± 0.7 kg/m3
viscosity (x2 = 0): 0.668 ± 0.012 mPa·s

mass density (x2 = 0): 731.9 ± 0.6 kg/m3
viscosity (x2 = 0): 0.493 ± 0.009 mPa·s
mass density (x2 = 0.1001): 755.1 ± 0.6 kg/m3
viscosity (x2 = 0.1001): 0.477 ± 0.009 mPa·s
mass density (x2 = 0.2001): 779.6 ± 0.6 kg/m3
viscosity (x2 = 0.2001): 0.463 ± 0.009 mPa·s
mass density (x2 = 0.3002): 805.8 ± 0.6 kg/m3
viscosity (x2 = 0.3002): 0.458 ± 0.009 mPa·s
mass density (x2 = 0.4002): 833.8 ± 0.7 kg/m3
viscosity (x2 = 0.4002): 0.455 ± 0.009 mPa·s
mass density (x2 = 0.5002): 864.1 ± 0.7 kg/m3
viscosity (x2 = 0.5002): 0.456 ± 0.009 mPa·s
mass density (x2 = 0.6002): 896.8 ± 0.7 kg/m3
viscosity (x2 = 0.6002): 0.464 ± 0.009 mPa·s
mass density (x2 = 0.7002): 932.1 ± 0.8 kg/m3
viscosity (x2 = 0.7002): 0.478 ± 0.009 mPa·s
mass density (x2 = 0.8001): 970.3 ± 0.8 kg/m3
viscosity (x2 = 0.8001): 0.496 ± 0.009 mPa·s
mass density (x2 = 0.9001): 1011.8 ± 0.8 kg/m3
viscosity (x2 = 0.9001): 0.513 ± 0.01 mPa·s
SMILES: CCCCN [1-butanamine] + C1COCO1

SMILES: CCCCOC(C)=O [butyl ethanoate] + C1COCCO1
mass density (x2 = 0): 874.4 ± 0.7 kg/m3
viscosity (x2 = 0): 0.668 ± 0.012 mPa·s
mass density (x2 = 0.1278): 887.5 ± 0.7 kg/m3
viscosity (x2 = 0.1278): 0.682 ± 0.012 mPa·s
mass density (x2 = 0.2479): 901 ± 0.7 kg/m3
viscosity (x2 = 0.2479): 0.692 ± 0.012 mPa·s
mass density (x2 = 0.361): 914.9 ± 0.7 kg/m3
viscosity (x2 = 0.361): 0.708 ± 0.013 mPa·s
mass density (x2 = 0.4678): 929.2 ± 0.7 kg/m3
viscosity (x2 = 0.4678): 0.739 ± 0.013 mPa·s
mass density (x2 = 0.5687): 944.1 ± 0.8 kg/m3
viscosity (x2 = 0.5687): 0.779 ± 0.014 mPa·s
mass density (x2 = 0.6641): 959.4 ± 0.8 kg/m3
viscosity (x2 = 0.6641): 0.822 ± 0.014 mPa·s
mass density (x2 = 0.7547): 975.3 ± 0.8 kg/m3
viscosity (x2 = 0.7547): 0.866 ± 0.015 mPa·s
mass density (x2 = 0.8406): 991.8 ± 0.8 kg/m3
viscosity (x2 = 0.8406): 0.939 ± 0.016 mPa·s
mass density (x2 = 0.9223): 1008.9 ± 0.8 kg/m3
viscosity (x2 = 0.9223): 1.035 ± 0.017 mPa·s

SMILES: CCC(C)=O [butanone] + C1COCO1
mass density (x2 = 0): 798.1 ± 0.6 kg/m3
viscosity (x2 = 0): 0.373 ± 0.007 mPa·s

SMILES: C1COCO1 [1,3-dioxolane] + CCCCN
mass density (x1 = 1): 1057.1 ± 0.9 kg/m3
viscosity (x1 = 1): 0.531 ± 0.01 mPa·s

SMILES: C1COCO1 [1,3-dioxolane] + CCCCOC(C)=O
mass density (x1 = 0.1484): 890.7 ± 0.7 kg/m3
viscosity (x1 = 0.1484): 0.621 ± 0.011 mPa·s
mass density (x1 = 0.2816): 906.9 ± 0.7 kg/m3
viscosity (x1 = 0.2816): 0.599 ± 0.011 mPa·s
mass density (x1 = 0.4019): 923.3 ± 0.7 kg/m3
viscosity (x1 = 0.4019): 0.588 ± 0.011 mPa·s
mass density (x1 = 0.5111): 940.3 ± 0.8 kg/m3
viscosity (x1 = 0.5111): 0.583 ± 0.011 mPa·s
mass density (x1 = 0.6106): 957.8 ± 0.8 kg/m3
viscosity (x1 = 0.6106): 0.577 ± 0.011 mPa·s
mass density (x1 = 0.7017): 976.1 ± 0.8 kg/m3
viscosity (x1 = 0.7017): 0.571 ± 0.01 mPa·s
mass density (x1 = 0.7853): 995.2 ± 0.8 kg/m3
viscosity (x1 = 0.7853): 0.565 ± 0.01 mPa·s
mass density (x1 = 0.8625): 1015 ± 0.8 kg/m3
viscosity (x1 = 0.8625): 0.556 ± 0.01 mPa·s
mass density (x1 = 0.9338): 1035.6 ± 0.9 kg/m3
viscosity (x1 = 0.9338): 0.544 ± 0.01 mPa·s
mass density (x1 = 1): 1057.1 ± 0.9 kg/m3
viscosity (x1 = 1): 0.531 ± 0.01 mPa·s

SMILES: C1COCCO1 [1,4-dioxane] + CCC(C)=O
mass density (x1 = 1): 1026.5 ± 0.8 kg/m3
viscosity (x1 = 1): 1.196 ± 0.02 mPa·s

mass density (x2 = 0): 952.8 ± 0.8 kg/m3
viscosity (x2 = 0): 1.396 ± 0.023 mPa·s
mass density (x2 = 0.1): 961.7 ± 0.8 kg/m3
viscosity (x2 = 0.1): 1.504 ± 0.025 mPa·s
mass density (x2 = 0.2): 970.3 ± 0.8 kg/m3
viscosity (x2 = 0.2): 1.57 ± 0.026 mPa·s
mass density (x2 = 0.3): 978.4 ± 0.8 kg/m3
viscosity (x2 = 0.3): 1.587 ± 0.026 mPa·s
mass density (x2 = 0.4): 986.1 ± 0.8 kg/m3
viscosity (x2 = 0.4): 1.572 ± 0.026 mPa·s
mass density (x2 = 0.5): 993.4 ± 0.8 kg/m3
viscosity (x2 = 0.5): 1.507 ± 0.025 mPa·s
mass density (x2 = 0.6): 1000.2 ± 0.8 kg/m3
viscosity (x2 = 0.6): 1.443 ± 0.024 mPa·s
mass density (x2 = 0.7): 1006.8 ± 0.8 kg/m3
viscosity (x2 = 0.7): 1.362 ± 0.022 mPa·s
mass density (x2 = 0.8): 1013.1 ± 0.8 kg/m3
viscosity (x2 = 0.8): 1.293 ± 0.021 mPa·s
mass density (x2 = 0.9): 1019.4 ± 0.8 kg/m3
viscosity (x2 = 0.9): 1.241 ± 0.021 mPa·s
SMILES: CCCC(=O)O [butanoic acid] + C1COCCO1

mass density (x2 = 0): 731.9 ± 0.6 kg/m3
viscosity (x2 = 0): 0.493 ± 0.009 mPa·s
mass density (x2 = 0.0855): 753.4 ± 0.6 kg/m3
viscosity (x2 = 0.0855): 0.509 ± 0.01 mPa·s
mass density (x2 = 0.1738): 776.1 ± 0.6 kg/m3
viscosity (x2 = 0.1738): 0.524 ± 0.01 mPa·s
mass density (x2 = 0.265): 800.1 ± 0.6 kg/m3
viscosity (x2 = 0.265): 0.541 ± 0.01 mPa·s
mass density (x2 = 0.3594): 825.8 ± 0.7 kg/m3
viscosity (x2 = 0.3594): 0.56 ± 0.01 mPa·s
mass density (x2 = 0.4569): 853.3 ± 0.7 kg/m3
viscosity (x2 = 0.4569): 0.59 ± 0.011 mPa·s
mass density (x2 = 0.5579): 882.8 ± 0.7 kg/m3
viscosity (x2 = 0.5579): 0.637 ± 0.011 mPa·s
mass density (x2 = 0.6625): 914.7 ± 0.7 kg/m3
viscosity (x2 = 0.6625): 0.699 ± 0.012 mPa·s
mass density (x2 = 0.7709): 949.2 ± 0.8 kg/m3
viscosity (x2 = 0.7709): 0.792 ± 0.014 mPa·s
mass density (x2 = 0.8834): 986.4 ± 0.8 kg/m3
viscosity (x2 = 0.8834): 0.941 ± 0.016 mPa·s
SMILES: CCCCN [1-butanamine] + C1COCCO1

mass density (x2 = 0): 952.8 ± 0.8 kg/m3
viscosity (x2 = 0): 1.396 ± 0.023 mPa·s
mass density (x2 = 0.1167): 963.1 ± 0.8 kg/m3
viscosity (x2 = 0.1167): 1.297 ± 0.021 mPa·s
mass density (x2 = 0.2292): 973.7 ± 0.8 kg/m3
viscosity (x2 = 0.2292): 1.202 ± 0.02 mPa·s
mass density (x2 = 0.3376): 984.3 ± 0.8 kg/m3
viscosity (x2 = 0.3376): 1.111 ± 0.019 mPa·s
mass density (x2 = 0.4422): 995.3 ± 0.8 kg/m3
viscosity (x2 = 0.4422): 1.023 ± 0.017 mPa·s
mass density (x2 = 0.5432): 1006.1 ± 0.8 kg/m3
viscosity (x2 = 0.5432): 0.938 ± 0.016 mPa·s
mass density (x2 = 0.6408): 1016.9 ± 0.8 kg/m3
viscosity (x2 = 0.6408): 0.854 ± 0.015 mPa·s
mass density (x2 = 0.7351): 1027.2 ± 0.8 kg/m3
viscosity (x2 = 0.7351): 0.77 ± 0.013 mPa·s
mass density (x2 = 0.8263): 1037.4 ± 0.8 kg/m3
viscosity (x2 = 0.8263): 0.688 ± 0.012 mPa·s
mass density (x2 = 0.9146): 1047.3 ± 0.9 kg/m3
viscosity (x2 = 0.9146): 0.608 ± 0.011 mPa·s
SMILES: CCCC(=O)O [butanoic acid] + C1COCO1
